Experimental data from patent US5466718A, “Tyrosinase inhibitors” (Takasago Institute for Interdisciplinary, priority 1993, dated 1995).
In brackets after ≈: the same amount, converted by molar mass. Counter-ions that a name gives are not always drawn.

Columns and labels:
mushroom tyrosinase = assay: Tyrosinase inhibition (mushroom tyrosinase, L-DOPA, dopachrome absorbance at 475 nm); assay type: biochemical; conditions: pH 6.8, 22° C., L-DOPA substrate; concentration with 40 to 60% inhibition in a minimum of two trials taken as IC50
Method: Inhibition tests were carried out using aqueous solvents. Saturated stock solutions were prepared by at least 48 hours before the tests were run, which were diluted appropriately upon use in order to increase the solubilities in the aqueous solvents of the lipophilic test compounds.
Tests were carried out according to conventional procedure as follows. That is, 0.01 to 0.02 ml of a mushroom tyrosinase solution (1,375 U/ml, Sigma Chemical Co.), 0.98 to 0.99 ml of a 0.07M phosphate buffer solution (pH 6.8) and 1 ml of a test solution with or without a test compound listed in Table 2 were mixed, and the resulting mixture was incubated at 22° C. for 8 minutes. Then, 1 ml of a 0.03% aqueous solution of I-DOPA (L-3,4-dihydroxyphenylalanine having a purity of 99%, Sigma Chemical Co.) was added thereto. After incubation at 22° C. for 2 minutes, the amount of dopachrome in the reaction mixture was measured as absorbance (optical density) at 475 nm. The change in absorbance with or without different test samples was monitored every 30 seconds for the following 2.5 minutes using a Beckman DU-64 spectrophotometer (Beckman, Palo Alto, Calif.).
Each test compound was repeatedly tested until the 50% inhibitory concentration (IC50) (μg/ml) was determined.
The percent inhibition was calculated according to the following equation: [formula] where A=Absorbance
^A final=Final absorbance
^A initial=Initial absorbance

[1] = system: Mouse melanoma cell line (ATCC CRL 6322); assay: Melanin formation inhibition in melanoma cells; assay type: cell-based; conditions: for inhibition at 250 µM: 0.25 mM; for inhibition at 500 µM: 0.5 mM
Method: Inhibitory effects on the melanin formation in melanoma cells were tested by the following procedure. Results obtained are shown in Table 5, together with the results obtained with arbutin as a control.
Mouse melanoma cell line (ATCC CRL 6322) was maintained in MEM medium (GIBCO BR, Gaitherburg, Md.) supplemented with 10% heat-inactivated fetal bovine serum described by Maeda (J. Cosmet. Chem., 42, 361 (1991)). More specifically, the cells were cultured on 6-well tissue culture plates (Falcon 3046) with various concentrations of each test compound listed in Table 5 below at 37° C., and at a humidity of 98%, in 5% carbon dioxide atmosphere for 4 days. Cell viability in all tests was determined by Trypan Blue exclusion. The culture media were aspirated, and 1.0 ml of an aqueous 0.25% trypsin solution and an aqueous 0.2% ethylenediaminetetraacetic acid (EDTA) solution were added to each well. Detached cells were placed in an Eppendorf tube, and centrifuged at 1,000 rpm for 5 minutes. The cell pellets thus obtained were mixed with 5% trichloroacetic acid, agitated well, and centrifuged 10,000 rpm to deposit melanin. The melanin pellets were mixed with 1N NaOH for dissolution, and the absorbance at 475 nm was measured, from which melanin formation inhibition (%) was calculated.

tyrosinase = assay: Tyrosinase inhibition (long exposure), melanin formation from L-tyrosine; assay type: biochemical; conditions: test solution 200 μg/ml, pH 6.8, 37° C., L-tyrosine substrate
Method: Tyrosinase inhibitory effects of the active compounds of this invention on long exposure were determined using […]. The method of Chen et al. (J. Agric. Food Chem., 39, 8, 1991) was adapted and scaled down for spectrophotometric analysis on a Bio Rad Model 3550 Microplate Reader (Bio-Rad, Richmond, Calif.), which uses 96-well plates. 20 μl of tyrosinase solution containing 0.02 mg/ml of tyrosinase (Sigma Chemical Company) and 76 μl of a test solution of citronellol, geraniol, or farnesol, adjusted to 200 μg/ml with a phosphate buffer solution (pH 6.8) were added to each well. After incubation at 37° C. for 8 minutes, 1 mM L-tyrosine (Sigma Chemical Company) was added as a substrate. Absorbance at 490 nm was measured every 60 seconds for up to 120 minutes to determine how much the amount of melanin produced from tyrosine substrate decreased as a result of the tyrosinase inhibition.

[2] = Mus musculus, 96 h, 4 days, 37° C.

| SMILES | IC50 (mushroom tyrosinase) | further results |
| --- | --- | --- |
| CC(C)=CCCC(C)CCOC(=O)C(C)C (centres unmarked) [Citronellyl isobutyrate] | 6.3 µg/mL (≈ 27.8 µM) | inhibition at 250 µM [1, 2]: 31%; inhibition at 500 µM [1, 2]: 56% |
| CC(C)=CCC/C(C)=C/CO [Geraniol] | 6.3 µg/mL (≈ 40.8 µM) | Inhibition Ratio (%) on Melanin Formation (tyrosinase; 0 minute): 0%; Inhibition Ratio (%) on Melanin Formation (tyrosinase; 30 minute): 37.3%; Inhibition Ratio (%) on Melanin Formation (tyrosinase; 120 minute): 48.5%; inhibition at 250 µM [1, 2]: 30%; inhibition at 500 µM [1, 2]: 18% |
| CCCCCCCCCCO [Decanol] | 12.5 µg/mL (≈ 79 µM) |  |
| CCCCCCCCO [Octanol] | 12.5 µg/mL (≈ 96 µM) |  |
| CC(C)=CCCC(C)CC#N (centres unmarked) [Citronellyinitrile, citronellylnitrile] | 9.4 µg/mL (≈ 62.1 µM) |  |
| CCCC(=O)OCCC(C)CCC=C(C)C (centres unmarked) [Citronellyl butyrate] | 37.5 µg/mL (≈ 166 µM) |  |
| CC(C)=CCCC(C)=CCCC(C)=CCOC(=O)Cc1ccccc1 [Farnesyl phenylacetate] | 12.5 µg/mL (≈ 36.7 µM) |  |
| CC(=O)OCCC(C)CCC=C(C)C (centres unmarked) [Citronellyl acetate] | 18.8 µg/mL |  |
| OC[C@H]1O[C@@H](Oc2ccc(O)cc2)[C@H](O)[C@@H](O)[C@@H]1O [Arbutin, reference compound] | 63 µg/mL (≈ 231 µM) | inhibition at 125 µM ([1]; Mus musculus, 96 h, 0.125 mM, 4 days, 37° C.): 58%; inhibition at 250 µM [1, 2]: 53%; melanin formation inhibition in melanoma cells ([1]; summary of Table 5, aqueous system): exhibited higher inhibitory effects than the active compounds of the present invention |
| C=CC(C)CCCC(C)(C)O (centres unmarked) [Dihydromyrcenol] | 12.5 µg/mL (≈ 80 µM) |  |
| CC(C)=CCCC(C)=CCCC(C)=CCOC(=O)c1ccccc1 [Farnesyl benzoate] | 25.0 µg/mL (≈ 76.6 µM) |  |
| CC(C)=CCC/C(C)=C/COC(=O)C(C)C [Geranyl isobutyrate] | 12.5 µg/mL (≈ 55.7 µM) |  |
| C=CC(C)(O)CCC=C(C)CCC=C(C)C (centres unmarked) [Nerolidol] | 12.5 µg/mL (≈ 56.2 µM) |  |
| CC(C)=CCCC(C)CC=O (centres unmarked) [Citronellal] | 9.4 µg/mL (≈ 60.9 µM) |  |
| CC(C)=CCCC(C)=CCCC(C)=CCOC(=O)C(C)C [Farnesyl isobutyrate] | 12.5 µg/mL (≈ 42.7 µM) |  |
| CC(C)=CCCC(C)CCOC=O (centres unmarked) [Citronellyl formate] | 6.3 µg/mL |  |
| CC(C)=CCCC(C)CCOC(=O)c1ccccc1 (centres unmarked) [Citronellyl benzoate] | 6.3 µg/mL (≈ 24.2 µM) |  |
| CC(C)=CCCC(C)=CCCC(C)=CCO [Farnesol] | 12.5 µg/mL (≈ 56.2 µM) | Inhibition Ratio (%) on Melanin Formation (tyrosinase; 0 minute): 0%; Inhibition Ratio (%) on Melanin Formation (tyrosinase; 30 minute): 23.6%; Inhibition Ratio (%) on Melanin Formation (tyrosinase; 120 minute): 31.9% |
| CCC(=O)OCCC(C)CCC=C(C)C (centres unmarked) [Citronellyl propionate] | 12.5 µg/mL (≈ 58.9 µM) |  |
| CC(C)=CCCC(C)CCO (centres unmarked) [Citronellol] | 6.3 µg/mL (≈ 40.3 µM) | Inhibition Ratio (%) on Melanin Formation (tyrosinase; 0 minute): 0%; Inhibition Ratio (%) on Melanin Formation (tyrosinase; 30 minute): 39.6%; Inhibition Ratio (%) on Melanin Formation (tyrosinase; 120 minute): 43.8%; inhibition at 250 µM [1, 2]: 25%; inhibition at 500 µM [1, 2]: 25% |
